Bounds are passed on as bounds.

Series [1] relates to Botryotinia fuckeliana (Botrytis cinerea). As to the kind of experiment: Botryotinia fuckeliana (Botrytis cinerea) / liquid culture (gray mould). It counts as cell-based. To be noted: Vogels broth, 24° C., inhibition of growth determined photometrically 3-4 days after application, read-out: disease control. Here is the method:
9 Botryotinia fuckeliana (Botrytis cinerea)/liquid culture (Gray mould): Conidia of the fungus from cryogenic storage were directly mixed into nutrient broth (Vogels broth). After placing a DMSO solution of test compound into a 96-well microtiter plate at an application rate of 200 ppm, the nutrient broth containing the fungal spores was added. The test plates were incubated at 24° C. and the inhibition of growth was determined photometrically 3-4 days after application.

A further series relates to Gaeumannomyces Graminis. The series can be described thus: Gaeumannomyces graminis / liquid culture (take-all of cereals). The settings on record: PDB, 24° C., inhibition of growth determined photometrically 4-5 days after application, read-out: disease control. It counts as cell-based. The method, then:
13 Gaeumannomyces Graminis/Liquid Culture (Take-all of Cereals): Mycelial fragments of the fungus from cryogenic storage were directly mixed into nutrient broth (PDB potato dextrose broth). […] The test plates were incubated at 24° C. and the inhibition of growth was determined photometrically 4-5 days after application.

Series [2] has as its system Monographella nivalis (Microdochium nivale). As to the kind of experiment: Monographella nivalis (Microdochium nivale) / liquid culture (foot rot cereals). It counts as cell-based. To be noted: PDB, 24° C., inhibition of growth determined photometrically 4-5 days after application, read-out: disease control. Here is the method:
14 Monographella nivalis (Microdochium nivale)/liquid culture (foot rot cereals): Conidia of the fungus from cryogenic storage were directly mixed into nutrient broth (PDB potato dextrose broth). After placing a DMSO solution of test compound into a 96-well microtiter plate at an application rate of 200 ppm, the nutrient broth containing the fungal spores was added. The test plates were incubated at 24° C. and the inhibition of growth was determined photometrically 4-5 days after application.

Series [3] concerns Mycosphaerella arachidis (Cercospora arachidicola). As to the kind of experiment: Mycosphaerella arachidis (Cercospora arachidicola) / liquid culture (early leaf spot). To be noted: PDB, 24° C., inhibition of growth determined photometrically 4-5 days after application, read-out: disease control. It counts as cell-based. The method, then:
11 Mycosphaerella arachidis (Cercospora arachidicola)/Liquid Culture (Early Leaf Spot): Conidia of the fungus from cryogenic storage were directly mixed into nutrient broth (PDB potato dextrose broth). After placing a DMSO solution of test compound into a 96-well microtiter plate at an application rate of 200 ppm, the nutrient broth containing the fungal spores was added. The test plates were incubated at 24° C. and the inhibition of growth was determined photometrically 4-5 days after application.

The subject of series [4] is Glomerella lagenarium (Colletotrichum Lagenarium). As to the kind of experiment: Glomerella lagenarium (Colletotrichum lagenarium) / liquid culture (anthracnose). The format is cell-based. To be noted: Colletotrichum orbiculare, PDB, 24° C., inhibition of growth measured photometrically 3-4 days after application, read-out: disease control. Here is the method: 10 Glomerella lagenarium (Colletotrichum Lagenarium)/Liquid Culture (Anthracnose): Conidia of the fungus from cryogenic storage were directly mixed into nutrient broth (PDB potato dextrose broth). After placing a DMSO solution of test compound into a 96-well microtiter plate at an application rate of 200 ppm, the nutrient broth containing the fungal spores was added. The test plates were incubated at 24° C. and the inhibition of growth was measured photometrically 3-4 days after application.

The test system of another series is Sclerotinia sclerotiorum. The series can be described thus: Sclerotinia sclerotiorum / liquid culture (cottony rot). The format is cell-based. To be noted: PDB, 24° C., inhibition of growth determined visually 3-4 days after application, read-out: disease control. Here is the method:
17 Sclerotinia sclerotiorum/liquid culture (cottony rot): Mycelia fragments of a newly grown liquid culture of the fungus were directly mixed into nutrient broth (PDB potato dextrose broth). After placing a (DMSO) solution of the test compounds into a microtiter plate (96-well format) the nutrient broth containing the fungal material was added. The test plates were incubated at 24° C. and the inhibition of growth was determined visually 3-4 days after application.

The subject of a further series is Plasmopara viticola. As to the kind of experiment: whole plant or invertebrate. It counts as in vivo. The settings on record: foliar, read-out: disease control.
Another series deals with Alternaria solani. The series can be described thus: Alternaria solani / tomato / leaf disc (early blight). It counts as in vivo. The settings on record: 200 ppm; tomato leaf disks cv. Baby, inoculated 2 days after application; assessed 5-7 days after application vs untreated. Here is the method:
6 Alternaria solani/Tomato/Leaf Disc (Early Blight) Tomato leaf disks cultivated variety (cv.) Baby were placed on agar in multiwell plates (24-well format) and sprayed with the formulated test compound diluted in water at an application rate of 200 ppm. The leaf disks were inoculated with a spore suspension of the fungus 2 days after application. The inoculated leaf disks were incubated at 23° C./21° C.

The subject of series [5] is Mycosphaerella graminicola (Septoria tritici). The series can be described thus: Mycosphaerella graminicola (Septoria tritici) / liquid culture (Septoria blotch). To be noted: Zymoseptoria tritici, PDB, 24° C., inhibition of growth determined photometrically 4-5 days after application, read-out: disease control. It counts as cell-based. The method, then: 12 Mycosphaerella graminicola (Septoria tritici)/Liquid Culture (Septoria Blotch): Conidia of the fungus from cryogenic storage were directly mixed into nutrient broth (PDB potato dextrose broth). After placing a DMSO solution of test compound into a 96-well microtiter plate at an application rate of 200 ppm, the nutrient broth containing the fungal spores was added. The test plates were incubated at 24° C. and the inhibition of growth was determined photometrically 4-5 days after application.

Another series deals with Pythium ultimum. The series can be described thus: Pythium ultimum / liquid culture (seedling damping off). The settings on record: Globisporangium ultimum, potato dextrose broth, 24° C., inhibition of growth determined photometrically 2-3 days after application, read-out: disease control. The format is cell-based. Here is the method: 8 Pythium ultimum/Liquid Culture (Seedling Damping Off) Mycelia fragments and oospores of a newly grown liquid culture of the fungus were directly mixed into nutrient broth (potato dextrose broth). After placing a DMSO solution of test compound into a 96-well format microtiter plate at an application rate of 200 ppm, the nutrient broth containing the fungal mycelia/spore mixture was added. The test plates were incubated at 24° C. and the inhibition of growth was determined photometrically 2-3 days after application.

Another series relates to Pyrenophora teres. The series can be described thus: Pyrenophora teres / barley / leaf disc preventative (net blotch). It counts as in vivo. To be noted: 200 ppm; barley leaf segments cv Hasso, inoculated two days after application; assessed 5-7 days after application vs untreated. The method, then: 5 Pyrenophora teres/Barley/Leaf Disc Preventative (Net Blotch): Barley leaf segments cv Hasso were placed on agar in a 24-well plate and sprayed with formulated test compound diluted in water at an application rate of 200 ppm. The leaf segments were inoculated with a spore suspension of the fungus two days after application of the test solution. The inoculated leaf segments were incubated at 20° C. and 65% relative humidity under a light regime of 12/12 h (light/dark) in a climate cabinet and the activity of a compound was assessed as disease control compared to untreated when an appropriate level of disease damage appears in untreated check leaf segments (5-7 days after application).

In the next series the test system is Fusarium culmorum. As to the kind of experiment: microbe, parasite or virus in culture. To be noted: read-out: disease control. The format is cell-based.
In series [6] the test system is Magnaporthe grisea (Pyricularia oryzae). It counts as in vivo. The settings on record: 200 ppm; rice leaf segments cv. Ballila, inoculated 2 days after application; assessed 5-7 days after application vs untreated.

`OB1OCc2ccc(-c3ccccc3)cc21` [Compound 1, 1-hydroxy-6-phenyl-3H-2,1-benzoxaborole]: the melting point lay in the range of 140 to 150 °C. Further, the inhibition of growth at 200 ppm in [1] is at least 80%. Also, in the series with Gaeumannomyces Graminis, the inhibition of growth at 200 ppm is at least 80%. Besides, the inhibition of growth at 200 ppm in series [2] was at least 80%. Besides, the inhibition of growth at 200 ppm in [3] was at least 80%. Moreover, the inhibition of growth at 200 ppm in series [4] is at least 80%. For the same molecule, the inhibition of growth at 200 ppm in the series with Sclerotinia sclerotiorum was at least 80%. Further, in the series with Plasmopara viticola, the pest or weed control at 200 ppm is at least 80%. Moreover, the disease control entry in the series on Alternaria solani is “at least 80%”. Moreover, the inhibition of growth at 200 ppm in series [5] was at least 80%. Moreover, the inhibition of growth at 200 ppm in the series on Pythium ultimum is at least 80%.

`OB1OCc2cc(F)c(-c3ccc(F)cc3)cc21` [Compound 10] registered a melting point of 161 to 163 °C. Besides, in series [1], the inhibition of growth at 200 ppm is at least 80%. In addition, the inhibition of growth at 200 ppm in the series with Gaeumannomyces Graminis was at least 80%. The inhibition of growth at 200 ppm in series [2] was at least 80%. Further, the inhibition of growth at 200 ppm in series [3] is at least 80%. For the same molecule, the disease control entry in the series on Pyrenophora teres is “at least 80%”. In the series on Fusarium culmorum, the inhibition of growth at 200 ppm was at least 80%. For the same molecule, the inhibition of growth at 200 ppm in series [4] was at least 80%. The inhibition of growth at 200 ppm in the series with Sclerotinia sclerotiorum was at least 80%. The pest or weed control at 200 ppm in the series with Plasmopara viticola was at least 80%. In series [5], the inhibition of growth at 200 ppm was at least 80%. Further, the inhibition of growth at 200 ppm in the series on Pythium ultimum was at least 80%.

`OB1OCc2cc(F)c(-c3ccccc3)cc21` [Compound 9] displayed a melting point of 142 to 152 °C. Also, in series [1], the inhibition of growth at 200 ppm was at least 80%. Further, in the series with Gaeumannomyces Graminis, the inhibition of growth at 200 ppm was at least 80%. In addition, in series [2], the inhibition of growth at 200 ppm was at least 80%. Also, the inhibition of growth at 200 ppm in series [3] is at least 80%. Also, the inhibition of growth at 200 ppm in the series with Fusarium culmorum was at least 80%. The inhibition of growth at 200 ppm in series [4] is at least 80%. Further, the inhibition of growth at 200 ppm in the series with Sclerotinia sclerotiorum was at least 80%. Besides, the pest or weed control at 200 ppm with Plasmopara viticola was at least 80%. The inhibition of growth at 200 ppm in series [5] was at least 80%. For the same molecule, in [6], the disease control entry is “at least 80%”. For the same molecule, in the series with Pythium ultimum, the inhibition of growth at 200 ppm was at least 80%.

By melting point is commonly meant the temperature of the solid-liquid transition.

The values are drawn from patent US20180000089A1, “NOVEL MICROBIOCIDES” (Syngenta Participations AG, priority 2015, published 2018).
